The values that follow come from PubChem BioAssay (NCI).

Test systems include K-562 leukemia; U251 CNS; UACC-62 melanoma; BT-549 breast; NCI-H23 lung; T-47D breast; NCI-H460 lung; HT29 colon; PC-3 prostate; CAKI-1 renal.
Experiment in all cases: NCI tumour cell line growth inhibition, 48 h

Each structure is given as a SMILES string. Several values for one entry are separate records, joined by “and”; a condition that tells them apart may be missing. Equal values may be shown once.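 Grown in 96-well plates, cells were treated for 48 hours with each compound at five concentrations. Insufficient inhibition: endpoint recorded as highest concentration tested. GI50: concentration for 50% inhibition of growth. TGI is the concentration that stops growth completely.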

Take `c1ccc([P+](CCC[P+](c2ccccc2)(c2ccccc2)c2ccccc2)(c2ccccc2)c2ccccc2)cc1`: the GI50 in the assay with K-562 leukemia is 4.53 µM; with BT-549 breast, 7.44 µM; in the assay with NCI-H23 lung, 18.8 µM; in the assay with T-47D breast it was 4.1 µM; in the assay on NCI-H460 lung it was 9.03 µM; in the assay with HT29 colon, 9.89 µM. Besides, the GI50 in the assay on PC-3 prostate was 3.26 µM. In addition, the TGI with K-562 leukemia was over 100 µM; in the assay on U251 CNS it was over 100 µM; in the assay with UACC-62 melanoma, over 100 µM; in the assay with BT-549 breast, over 100 µM; with NCI-H23 lung, over 100 µM; with T-47D breast it was 84.9 µM. Besides, the TGI in the assay with NCI-H460 lung is over 100 µM; in the assay with HT29 colon, over 100 µM; in the assay on PC-3 prostate, 81.1 µM; in the assay on CAKI-1 renal it was over 100 µM.
As to `COc1ccc(NCc2c(O)ccc3ccccc23)cc1`, the TGI was 38.3 µM in the assay with K-562 leukemia; over 100 µM with U251 CNS; over 100 µM in the assay with UACC-62 melanoma; 43.5 µM with BT-549 breast; over 100 µM in the assay with NCI-H23 lung; 55.1 µM with T-47D breast. The TGI in the assay on NCI-H460 lung is over 100 µM; in the assay with HT29 colon, over 100 µM; in the assay with PC-3 prostate it was 49.9 µM; in the assay on CAKI-1 renal, 67.1 µM.
As to `COc1cc(/C=N/O)nc(-c2ccccn2)c1`, the TGI with K-562 leukemia was over 100 µM; in the assay on U251 CNS, over 100 µM; in the assay with UACC-62 melanoma it was 2.7 µM; with BT-549 breast, over 100 µM; with NCI-H23 lung it was over 100 µM; with T-47D breast it was over 100 µM. Moreover, the TGI was 12.9 µM in the assay on NCI-H460 lung, over 100 µM in the assay on HT29 colon, over 100 µM in the assay with PC-3 prostate and 8.97 µM in the assay on CAKI-1 renal. The GI50 in the assay on U251 CNS was 0.374 µM; in the assay on UACC-62 melanoma it was 0.325 µM; with BT-549 breast, 0.803 µM; in the assay on T-47D breast it was 0.465 µM; in the assay on NCI-H460 lung, 0.304 µM; in the assay on HT29 colon it was 0.454 µM. Also, in the assay on PC-3 prostate, the GI50 is 0.437 µM.
Consider `CCCCCC/C=C\CCCCCCCCCc1c(O)c(OC)cc(O)c1CN(C)C`, for which the TGI came to 4.49 µM in the assay with K-562 leukemia; 13.4 µM with U251 CNS; 23.3 µM in the assay with UACC-62 melanoma; 21 µM in the assay with BT-549 breast; 23.1 µM with NCI-H23 lung; 4.2 µM in the assay on T-47D breast. In addition, the TGI in the assay on NCI-H460 lung amounted to 15.2 µM; with HT29 colon it was 16.1 µM; with PC-3 prostate, 14.5 µM; in the assay on CAKI-1 renal it was 26.9 µM.
`CSc1ccc(C(=O)/C=C/c2ccc(F)cc2)cc1`: the GI50 is 25.9 µM in the assay with K-562 leukemia; 32.9 µM with U251 CNS; over 100 µM with UACC-62 melanoma; 40 µM in the assay on BT-549 breast; over 100 µM in the assay on NCI-H23 lung; 96.4 µM in the assay with T-47D breast. Further, the GI50 with NCI-H460 lung is 70.2 µM; in the assay with HT29 colon, 19.5 µM; in the assay on PC-3 prostate it was 49.9 µM; with CAKI-1 renal it was over 100 µM. The TGI is 65.3 µM in the assay on K-562 leukemia; over 100 µM in the assay on U251 CNS; over 100 µM in the assay with UACC-62 melanoma; over 100 µM with BT-549 breast; over 100 µM in the assay with NCI-H23 lung; over 100 µM in the assay with T-47D breast. For the same compound, the TGI with NCI-H460 lung, with HT29 colon, in the assay on PC-3 prostate and in the assay on CAKI-1 renal was over 100 µM in each case.
As to `CCC(C)c1cnc(CC(C)C)c(=O)[nH]1` (stereo unspecified), the TGI in the assay on K-562 leukemia, with U251 CNS, in the assay on UACC-62 melanoma, with BT-549 breast, in the assay with NCI-H23 lung and with T-47D breast was over 100 µM each time. The TGI in the assay with NCI-H460 lung, in the assay with HT29 colon, in the assay on PC-3 prostate and in the assay with CAKI-1 renal was over 100 µM in each case.
Turning to `CCCCc1oc2ccccc2c1C(=O)c1cc(I)c(OCCN(CC)CC)c(I)c1`, the TGI is 9.87 µM with K-562 leukemia; 3 µM and 7.73 µM in the assay with U251 CNS; 3.83 µM in the assay on UACC-62 melanoma; 9.38 µM with BT-549 breast; 8.87 µM and 18 µM with NCI-H23 lung; 12.2 µM with T-47D breast. The TGI in the assay on NCI-H460 lung is 3.87 µM; with HT29 colon, 5.01 µM and 8.27 µM; in the assay on PC-3 prostate it was 8.91 µM; in the assay on CAKI-1 renal, 10.7 µM and 15.5 µM. Besides, the GI50 in the assay with U251 CNS was 1.57 µM; with BT-549 breast it was 3.26 µM; in the assay on NCI-H23 lung, 2.67 µM; in the assay on T-47D breast, 3.16 µM; in the assay with HT29 colon, 1.97 µM; with PC-3 prostate, 1.95 µM. Besides, the GI50 in the assay with CAKI-1 renal is 2.51 µM.
`O=C(O)CCc1nc(-c2ccccc2)c(-c2ccccc2)o1`: the TGI with K-562 leukemia, in the assay on U251 CNS, in the assay with UACC-62 melanoma, with BT-549 breast, in the assay on NCI-H23 lung and with T-47D breast was over 100 µM throughout. Further, the TGI with NCI-H460 lung, with HT29 colon, with PC-3 prostate and in the assay on CAKI-1 renal was over 100 µM in each case.
Turning to `c1cc(-c2cnn3nc(N4CCOCC4)ccc23)nc(NC2CC2)n1`, the GI50 is over 23.6 µM with K-562 leukemia; 6.97 µM in the assay on U251 CNS; 7.76 µM in the assay on UACC-62 melanoma; 8.15 µM in the assay on BT-549 breast; 7.19 µM in the assay on NCI-H23 lung; 8.08 µM in the assay with T-47D breast. For the same compound, the GI50 with NCI-H460 lung is 6.61 µM; with HT29 colon, 8.35 µM; with PC-3 prostate, 7.87 µM; with CAKI-1 renal, 7.21 µM. The TGI with K-562 leukemia, in the assay on U251 CNS, with UACC-62 melanoma, in the assay with BT-549 breast, in the assay on NCI-H23 lung and in the assay with T-47D breast was over 25 µM in each case. Also, the TGI in the assay with NCI-H460 lung, in the assay on HT29 colon, with PC-3 prostate and in the assay on CAKI-1 renal was over 25 µM in each case.
As for `OCCCCC#Cc1ccccc1C#Cc1cccs1`, the GI50 in the assay with K-562 leukemia is 20.3 µM; in the assay on U251 CNS, 13.9 µM; in the assay with UACC-62 melanoma it was 12.9 µM; in the assay with BT-549 breast, 12.4 µM; in the assay with NCI-H23 lung it was 14.2 µM; in the assay on T-47D breast it was 1.18 µM. Moreover, the GI50 was 15.1 µM with NCI-H460 lung, 12 µM with HT29 colon, 16.2 µM in the assay on PC-3 prostate and 14.6 µM with CAKI-1 renal. Moreover, the TGI with K-562 leukemia is 70.6 µM; with U251 CNS it was 27 µM; in the assay on UACC-62 melanoma it was 25.9 µM; in the assay with BT-549 breast it was 25.4 µM; with NCI-H23 lung it was 30.9 µM; with T-47D breast, 23.2 µM. For the same compound, the TGI with NCI-H460 lung turned out to be 29.8 µM; in the assay with HT29 colon, 27.6 µM; with PC-3 prostate, 30.8 µM; in the assay with CAKI-1 renal it was 28.3 µM.
Take `COc1ccc(-c2cc3nccn3c(Nc3ncccc3C(N)=O)n2)cc1OC`: the GI50 in the assay with K-562 leukemia is 4.59 µM; in the assay with U251 CNS, over 100 µM; with UACC-62 melanoma, 0.742 µM; with BT-549 breast, 0.886 µM; with NCI-H23 lung it was over 39.2 µM; with T-47D breast, over 100 µM. The GI50 with NCI-H460 lung was 2.19 µM; with HT29 colon, 1.19 µM; with PC-3 prostate, over 100 µM; with CAKI-1 renal it was 0.274 µM. The TGI in the assay with K-562 leukemia, in the assay with U251 CNS, in the assay on UACC-62 melanoma, in the assay on BT-549 breast, in the assay with NCI-H23 lung and in the assay with T-47D breast was over 100 µM in each case. In addition, the TGI in the assay on NCI-H460 lung, in the assay with HT29 colon, with PC-3 prostate and in the assay with CAKI-1 renal was over 100 µM in each case.
`COc1ccc2nc(C3=CN(C4OC(CO)C(O)C(O)C4O)C4C=CC=CC34)sc2c1` (stereo unspecified): the GI50 is 28.5 µM in the assay with K-562 leukemia; 28.5 µM in the assay with U251 CNS; 22.2 µM in the assay with UACC-62 melanoma; 33.9 µM in the assay on BT-549 breast; 33.9 µM with NCI-H23 lung; 45 µM with T-47D breast. Moreover, the GI50 with NCI-H460 lung is over 100 µM; with HT29 colon, 59.9 µM; in the assay with PC-3 prostate, 38.9 µM; in the assay on CAKI-1 renal it was 40.7 µM. The TGI was 87.7 µM with K-562 leukemia; over 100 µM in the assay with U251 CNS; 67.6 µM in the assay with UACC-62 melanoma; over 100 µM with BT-549 breast; over 100 µM in the assay on NCI-H23 lung; over 100 µM with T-47D breast. The TGI with NCI-H460 lung, in the assay with HT29 colon, in the assay with PC-3 prostate and with CAKI-1 renal was over 100 µM throughout.
Turning to `Cc1sc2c(c1C)C(c1ccc(Cl)cc1)=N[C@@H](CC(=O)Nc1ccc(O)cc1)c1nnc(C)n1-2`, the GI50 in the assay with K-562 leukemia is 0.499 µM; in the assay on U251 CNS it was 3.78 µM; in the assay on UACC-62 melanoma it was 0.162 µM; with BT-549 breast it was 4.17 µM; in the assay with NCI-H23 lung, 7.98 µM; in the assay on T-47D breast, 0.245 µM. Also, the GI50 was 2.95 µM with NCI-H460 lung, 0.197 µM in the assay on HT29 colon, 1.11 µM with PC-3 prostate and 0.0946 µM in the assay with CAKI-1 renal. The TGI with K-562 leukemia stood at 60.3 µM; in the assay with U251 CNS it was 21.7 µM; in the assay on UACC-62 melanoma, 18.1 µM; with BT-549 breast, 24.2 µM; in the assay on NCI-H23 lung, 39.2 µM; with T-47D breast it was 28.2 µM. The TGI in the assay on NCI-H460 lung was 27.4 µM; in the assay on HT29 colon, 18.9 µM; with PC-3 prostate it was 23.1 µM; with CAKI-1 renal, 16.2 µM.
For the compound `O=C(Nn1c2c(sc1=NC1CC1)C(=O)c1ccccc1C2=O)c1cc2ccc1CCc1ccc(cc1)CC2`, the GI50 in the assay with K-562 leukemia was 2.43 µM; with U251 CNS it was 2.41 µM; in the assay with UACC-62 melanoma, 1.62 µM; with BT-549 breast it was 1.5 µM; in the assay on NCI-H23 lung it was 1.31 µM; in the assay with T-47D breast it was 2.49 µM. Further, the GI50 with NCI-H460 lung is 3.35 µM; in the assay on HT29 colon it was 3.32 µM; in the assay with PC-3 prostate, 1.62 µM; in the assay on CAKI-1 renal, 2.48 µM. Besides, the TGI is over 100 µM in the assay on K-562 leukemia; 11.1 µM in the assay on U251 CNS; 3.52 µM with UACC-62 melanoma; 2.91 µM in the assay with BT-549 breast; 4.32 µM with NCI-H23 lung; 14.4 µM in the assay on T-47D breast. The TGI in the assay on NCI-H460 lung came to 12.2 µM; in the assay with HT29 colon, 28.7 µM; with PC-3 prostate it was 10.7 µM; in the assay with CAKI-1 renal, 14.9 µM.
